Assay results taken from article PMC7069776 (Journal of medicinal chemistry, 2019).

What was measured:
[1] = test system: C. albicans clinical isolate (CaCi2); assay: Antifungal sensitivity testing; assay type: cell-based; details: CaCi2, cultures spotted on compound-free YPD agar, 30 °C, 24 h
C. albicans Hsp90 NBD = details: cited from earlier work
Hsp90 = Hsp90 (Candida albicans, UniProt P46598); assay: biochemical
[2] = test system: C. neoformans (Strain H99); details: H99, RPMI 1640, 37 °C (Fig. 4A)

Hsp90, sequence (P46598 whole entry): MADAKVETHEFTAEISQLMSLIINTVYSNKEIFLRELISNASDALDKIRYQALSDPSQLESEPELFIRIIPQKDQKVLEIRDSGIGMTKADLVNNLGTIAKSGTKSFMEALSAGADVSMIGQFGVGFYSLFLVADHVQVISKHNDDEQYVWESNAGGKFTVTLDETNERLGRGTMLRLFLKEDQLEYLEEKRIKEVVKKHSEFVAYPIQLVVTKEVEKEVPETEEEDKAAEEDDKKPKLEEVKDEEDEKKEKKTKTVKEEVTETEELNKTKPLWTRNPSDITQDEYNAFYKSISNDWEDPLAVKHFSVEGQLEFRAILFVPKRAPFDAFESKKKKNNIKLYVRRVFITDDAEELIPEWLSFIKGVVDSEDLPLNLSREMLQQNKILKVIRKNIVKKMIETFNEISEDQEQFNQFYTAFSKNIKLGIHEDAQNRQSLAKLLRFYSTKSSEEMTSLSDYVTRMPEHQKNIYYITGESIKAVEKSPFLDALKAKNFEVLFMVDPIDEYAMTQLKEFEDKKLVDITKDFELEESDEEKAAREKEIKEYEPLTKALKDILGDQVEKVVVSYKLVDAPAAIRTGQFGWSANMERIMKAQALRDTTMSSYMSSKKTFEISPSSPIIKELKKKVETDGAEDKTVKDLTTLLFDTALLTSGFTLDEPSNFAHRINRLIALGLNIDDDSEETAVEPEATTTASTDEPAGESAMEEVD

| EC50 (Hsp90) [µM] | Structure (SMILES) | fungicidal activity in combination with fluconazole [1] | further results |
| --- | --- | --- | --- |
| – | COc1ccc(Cn2nc(-c3ccccc3)cc2Nc2cc(O)cc(O)c2C(=O)N2Cc3ccccc3C2)cc1 [Compound 21, 4-(2,3-dihydro-1H-isoindole-2-carbonyl)-5-((1-((4-methoxyphenyl)methyl)-3-phenyl-1H-pyrazol-5-yl)amino)benzene-1,3-diol] | fungicidal activity | – |
| – | Cc1cc(Nc2cc(O)cc(O)c2C(=O)N2Cc3ccccc3C2)n(Cc2ccccc2Cl)n1 [Compound 89, 5-((1-((2-Chlorophenyl)methyl)-3-methyl-1H-pyrazol-5-yl)amino)-4-(2,3-dihydro-1H-isoindole-2-carbonyl)benzene-1,3-diol] | fungicidal activity | – |
| – | COc1ccc(CO\N=C2/C=C/C=C\[C@H]3O[C@@H]3C[C@@H](C)OC(=O)c3c(O)cc(O)cc3C2)cc1 [CMLD013075] | – | binding selectivity for the C. albicans Hsp90 NBD compared to the human ortholog (C. albicans Hsp90 NBD): > 25 fold |
| > 9 | COc1ccc(Cn2nc(-c3ccccc3)cc2Nc2cc(O)cc(O)c2C(=O)N(C)CC2CC2)cc1 [Compound 31, N-(Cyclopropylmethyl)-2,4-dihydroxy-6-((1-((4-methoxyphenyl)methyl)-3-phenyl-1H-pyrazol-5-yl)amino)-N-methylbenzamide] | – | – |
| – | COc1ccc(Cn2ncc(C)c2Nc2cc(O)cc(O)c2C(=O)N2Cc3ccccc3C2)cc1 [Compound 41, 4-(2,3-Dihydro-1H-isoindole-2-carbonyl)-5-((1-((4-methoxyphenyl)methyl)-4-methyl-1H-pyrazol-5-yl)amino)benzene-1,3-diol] | fungicidal activity | – |
| – | Cn1nc(-c2ccc(OC(F)(F)F)cc2)cc1Nc1cc(O)cc(O)c1C(=O)N1Cc2ccccc2C1 [Compound 130, 4-(2,3-Dihydro-1H-isoindole-2-carbonyl)-5-((1-methyl-3-(4-(trifluoromethoxy)phenyl)-1H-pyrazol-5-yl)amino)benzene-1,3-diol] | fungicidal | – |
| – | Cc1ccccc1-c1cc(Nc2cc(O)cc(O)c2C(=O)N2Cc3ccccc3C2)n(C)n1 [Compound 106, 4-(2,3-Dihydro-1H-isoindole-2-carbonyl)-5-((1-methyl-3-(2-methylphenyl)-1H-pyrazol-5-yl)amino)benzene-1,3-diol] | – | concentration inhibiting growth of C. neoformans [2]: below 10 μM |
| > 6 | COc1ccc(Cn2nc(C)cc2Nc2cc(O)cc(O)c2C(=O)N(C)Cc2ccccc2)cc1 [Compound 37, N-Benzyl-2,4-dihydroxy-6-((1-((4-methoxyphenyl)methyl)-3-methyl-1H-pyrazol-5-yl)amino)-N-methylbenzamide] | – | – |
| > 10 | CCN(CC)C(=O)c1c(O)cc(O)cc1Nc1cc(-c2ccccc2)nn1Cc1ccc(OC)cc1 [Compound 39, N,N-Diethyl-2,4-dihydroxy-6-((1-((4-methoxyphenyl)methyl)-3-phenyl-1H-pyrazol-5-yl)amino)benzamide] | – | – |
| > 9 | COc1ccc(Cn2nc(C)cc2Nc2cc(O)cc(O)c2C(=O)N(C)CC2CC2)cc1 [Compound 30, N-(Cyclopropylmethyl)-2,4-dihydroxy-6-((1-((4-methoxyphenyl)methyl)-3-methyl-1H-pyrazol-5-yl)amino)-N-methylbenzamide] | – | – |
